# Values quoted from earlier work in US11547680B2, “Benzalkonium-embedded mesostructured silica compositions and uses of same” (RUTGERS, THE STATE UNIVERSITY OF NEW JERSEY, priority 2018, dated 2023).
# Settings: aqueous solution
substance,measurement,value
benzalkonium chloride [BAC],critical micelle concentration (CMC),ca. 0.5 mM
